Source: publication PMC6254723, “Synthesis and Pharmacological Screening of Several Aroyl and Heteroaroyl Selenylacetic Acid Derivatives as Cytotoxic and Antiproliferative Agents” (Molecules, 2009)
Where two headings read alike, the source gives them in different places.

Key:
CCRF-CEM = test: MTT cytotoxicity assay (NCI) in CCRF-CEM; format: cell-based, human; details: 72 h; for TGI CCRF-CEM: dose that completely inhibits cell growth; for LD50 CCRF-CEM: dose that kills 50% of cells; for GI50: Homo sapiens, CCRF-CEM, dose that inhibits 50% of cell growth, read-out: GI50 CCRF-CEM
Protocol: (§1) In order to investigate the effect of the active compounds in more detail, we examined the activity on proliferation in other cancer cell lines. […] Tests were carried out in the Department of Health Science, Public University of Navarra against a panel of four human tumour cell lines: lung (HTB-54), colon (HT-29), leukaemia (CCRF-CEM) and breast adenocarcinoma (MCF-7). Cytotoxicity assays were performed based on the reactivity of MTT [3-(4,5-dimethylthiazol-2-yl)-2,5-diphenyl-tetrazolium bromide], as described by NCI [39]. […] Doxorubicin was used as a control. As guidance with regard to selectivity, all of the compounds were further examined for toxicity in a mammary gland cell culture derived from non-malignant cells (184B5). Drug concentrations ranged from 0.01 to 100 μM.
(§2) The cytotoxic effects of each substance were tested at five different doses between 0.01 and 100 μM. Each substance was initially dissolved in DMSO at a concentration of 0.1 M, and serial dilutions were prepared using culture medium. The plates with cells from the different lines, to which medium containing the substance under test were added, were incubated for 72 h at 37 °C in a humidified atmosphere containing 5% CO2. European Collection of Cell Cultures (ECACC) or American Type Culture Collection (ATCC) provided human tumour cell lines. Four cell lines were used: one human lymphocytic leukemia (CCRF-CEM) and three human solid tumours, one colon carcinoma (HT-29), one lung carcinoma (HTB-54) and one breast adenocarcinoma (MCF-7). CCRF-CEM, HT-29 and HTB-54 cells were grown in RPMI 1640 medium (Life Technologies, Carlsbad, CA, USA) supplemented with 10% foetal calf serum, 2 mM L-glutamine, 100 units/mL penicillin, 100 μg/mL streptomycin and 10 mM HEPES buffer (pH = 7.4). MCF-7 cells were grown in EMEM medium (Clonetics) supplemented with 10% foetal calf serum, 2 mM L-glutamine, 100 units/mL penicillin and 100 μg/mL streptomycin. 184B5 cells were grown Hams F-12/DMEM (50:50) supplemented as described by Li et al.. Cytotoxicity was then determined by the MTT method. […] Data were obtained from at least three independent experiments performed in quadruplicate.

PC-3 cell line = test: MTT cytotoxicity assay in PC-3
Protocol: The results are tabulated as IC50 values. All experiments were independently performed at least three times and the values were calculated after 72 hours exposure (drug concentrations of 2, 5, 7 and 10 μM).
PC-3 cells were seeded in 96-well plates (Millipore, Eschborn, Germany) at a density of 5 × 10^3 cells per well. The samples were incubated at 37 °C under 5% CO2 overnight prior to the addition of the compounds. Compounds were diluted in complete medium. After 3 days of incubation, 10 μL MTT solution (5 mg/mL in PBS) was added to the cells in each well and these were stored for an additional 4 h at 37 °C. […] The percentage of viable cells was calculated to obtain IC50-values.
PC-3 are human tumorigenic and metastatic prostate cancer cells and these were obtained from American Type Culture Collection (ATCC, Manassas, VA, USA) (passage 36).

HT-29 = test: MTT cytotoxicity assay (NCI) in HT-29; format: cell-based, human; details: 72 h; for TGI HT-29: dose that completely inhibits cell growth; for LD50 HT-29: dose that kills 50% of cells; for GI50: Homo sapiens, HT-29, dose that inhibits 50% of cell growth, read-out: GI50 HT-29
Protocol: as §1, §2

HTB-54 = test: MTT cytotoxicity assay (NCI) in HTB-54; format: cell-based, human; details: 72 h; for TGI HTB-54: dose that completely inhibits cell growth; for LD50 HTB-54: dose that kills 50% of cells; for GI50: Homo sapiens, HTB-54, dose that inhibits 50% of cell growth, read-out: GI50 HTB-54
Protocol: as §1, §2

[1] = MTT toxicity assay in non-malignant mammary gland cells 184B5; format: cell-based; details: human
Protocol: as §1, §2

184B5 = test: as above; format: cell-based; details: 72 h; for LD50 184B5: non-malignant cells, dose that kills 50% of cells; for TGI 184B5: human
Protocol: as §1, §2

MCF-7 = test: MTT cytotoxicity assay (NCI) in MCF-7; format: cell-based, human; details: 72 h; for TGI MCF-7: dose that completely inhibits cell growth; for LD50 MCF-7: dose that kills 50% of cells; for GI50: Homo sapiens, MCF7, dose that inhibits 50% of cell growth, read-out: GI50 MCF-7
Protocol: as §1, §2

[2] = Homo sapiens, PC-3, 72 h, read-out: IC50 PC-3 cell line
[3] = Homo sapiens, PC-3, read-out: IC50 (cytotoxic activity in PC-3 cell line)

**Q.** What does the source list for `COc1cc(OC)cc(C(=O)[Se]CC(=O)O)c1` [Compound 14, (3,5-dimethoxy-benzoylselenyl)acetic acid]?
**A.** TGI CCRF-CEM (CCRF-CEM): >100 µM; LD50 CCRF-CEM (CCRF-CEM): >100 µM; GI50 (CCRF-CEM): > 100 µM; IC50 (PC-3 cell line; [2]): 4 µM; IC50 (PC-3 cell line; [3]): 4 µM; TGI HT-29 (HT-29): 47.42 µM; LD50 HT-29 (HT-29): >100 µM; GI50 (HT-29): 5.99 µM; TGI HTB-54 (HTB-54): >100 µM; LD50 HTB-54 (HTB-54): >100 µM; GI50 (HTB-54): 16.8 µM; GI50 at 72 h [1]: 0.0009 µM; LD50 184B5 (184B5): 62.55 µM; TGI 184B5 (184B5): 8.21 µM; TGI MCF-7 (MCF-7): 6.19 µM; TGI MCF-7 (MCF-7; listed as 3,5-dimethoxyphenyl): 4.18 µM; LD50 MCF-7 (MCF-7): 52.65 µM; GI50 (MCF-7): 1.57 µM

**Q.** Which IC50 (PC-3 cell line; read-out: IC50 PC-3 cell line, 72 h exposure, MTT, drug concentrations 2, 5, 7 and 10 μM, NE = no effect is observed) does the source give for “(3-phenyl-propanonylselenyl)acetic acid [Compound 12]” here?
**A.** > 10 µM

**Q.** Which IC50 (PC-3 cell line; [2]) does the source give for `O=C(O)C[Se]C(=O)c1ccc(Cl)cc1` [Compound 4, (4-chlorobenzoylselenyl)acetic acid] here?
**A.** > 10 µM

**Q.** What about the IC50 (PC-3 cell line; [3]) of the same compound?
**A.** > 10 µM

**Q.** For `Cc1ccc(C(=O)[Se]CC(=O)O)cc1` [Compound 5, (4-methylbenzoylselenyl)acetic acid], which IC50 (PC-3 cell line; [2]) is on record?
**A.** > 10 µM

**Q.** What about the IC50 (PC-3 cell line; [3]) of the same compound?
**A.** > 10 µM

**Q.** For `O=C(O)C[Se]C(=O)c1ccncc1` [Compound 19, (4-pyridoylselenyl)acetic acid], which IC50 (PC-3 cell line; [2]) is on record?
**A.** > 10 µM

**Q.** And the IC50 (PC-3 cell line; [3])?
**A.** > 10 µM

**Q.** Which IC50 (PC-3 cell line; [2]) does the source give for `O=C(O)C[Se]C(=O)c1ccc2ccccc2n1` [Compound 25, (2-quinoloylselenyl)acetic acid] here?
**A.** > 10 µM

**Q.** Which IC50 (PC-3 cell line; [2]) does the source give for `O=C(O)C[Se]C(=O)c1ccccc1Br` [Compound 9, (2-bromobenzoylselenyl)acetic acid] here?
**A.** > 10 µM

**Q.** What about the IC50 (PC-3 cell line; [3]) of the same compound?
**A.** > 10 µM

**Q.** What does the source list for `O=C(O)C[Se]C(=O)Cc1ccccc1` [Compound 11, Phenylacetoylselenylacetic acid]?
**A.** TGI CCRF-CEM (CCRF-CEM): >100 µM; LD50 CCRF-CEM (CCRF-CEM): >100 µM; GI50 (CCRF-CEM): > 100 µM; IC50 (PC-3 cell line; [2]): 2.9 µM; IC50 (PC-3 cell line; [3]): 2.9 µM; TGI HT-29 (HT-29): 72.19 µM; LD50 HT-29 (HT-29): >100 µM; GI50 (HT-29): 16.2 µM; TGI HTB-54 (HTB-54): >100 µM; LD50 HTB-54 (HTB-54): >100 µM; GI50 (HTB-54): 11.1 µM; GI50 at 72 h [1]: 1.05 µM; LD50 184B5 (184B5): 72.34 µM; TGI 184B5 (184B5): 9.64 µM; TGI MCF-7 (MCF-7): 4.18 µM; TGI MCF-7 (MCF-7; listed as benzyl): 6.19 µM; LD50 MCF-7 (MCF-7): 53.49 µM; GI50 (MCF-7): 0.006 µM

**Q.** Which results are given for `CC(C)(C)c1ccc(C(=O)[Se]CC(=O)O)cc1` [Compound 6, (4-tert-butylbenzoyl-selenyl)acetic acid]?
**A.** IC50 (PC-3 cell line; [2]): > 10 µM; IC50 (PC-3 cell line; [3]): > 10 µM

**Q.** With `O=C(O)C[Se]C(=O)c1cnc2ccccc2c1` [Compound 26, (3-quinoloylselenyl)acetic acid] as the compound, how does the IC50 (PC-3 cell line; [2]) read?
**A.** > 10 µM

**Q.** With `O=C(O)C[Se]C(=O)c1ccccc1I` [Compound 10, (2-iodobenzoylselenyl)acetic acid] as the compound, how does the IC50 (PC-3 cell line; [2]) read?
**A.** > 10 µM

**Q.** What about the IC50 (PC-3 cell line; [3]) of the same compound?
**A.** > 10 µM

**Q.** Which “TGI CCRF-CEM” value (CCRF-CEM) does the source give for `O=C(O)C[Se]C(=O)c1cccnc1Cl` [Compound 21, (3-(2-chloro)-pyridoylselenyl)acetic acid] here?
**A.** >100 µM

**Q.** And the “LD50 CCRF-CEM” value (CCRF-CEM)?
**A.** >100 µM

**Q.** What about the GI50 (CCRF-CEM) of the same compound?
**A.** > 100 µM

**Q.** What about the IC50 (PC-3 cell line; [2]) of the same compound?
**A.** 10 µM

**Q.** What about the IC50 (PC-3 cell line; [3]) of the same compound?
**A.** 10 µM

**Q.** And the “TGI HT-29” value (HT-29)?
**A.** 60.94 µM

**Q.** And the “LD50 HT-29” value (HT-29)?
**A.** >100 µM

**Q.** And the GI50 (HT-29)?
**A.** 7.53 µM

**Q.** What about the “TGI HTB-54” value (HTB-54) of the same compound?
**A.** >100 µM

**Q.** And the “LD50 HTB-54” value (HTB-54)?
**A.** >100 µM

**Q.** And the GI50 (HTB-54)?
**A.** 11.8 µM

**Q.** What about the GI50 at 72 h [1] of the same compound?
**A.** 0.05 µM

**Q.** What about the “LD50 184B5” value (184B5) of the same compound?
**A.** 7.20 µM

**Q.** And the “TGI 184B5” value (184B5)?
**A.** 1.89 µM

**Q.** What about the “TGI MCF-7” value (MCF-7) of the same compound?
**A.** 8.27 µM

**Q.** And the “LD50 MCF-7” value (MCF-7)?
**A.** 89.21 µM

**Q.** What about the GI50 (MCF-7) of the same compound?
**A.** 0.003 µM

**Q.** For `O=C(O)C[Se]C(=O)c1cc(Cl)cc(Cl)c1` [Compound 13, (3,5-dichlorobenzoylselenyl)acetic acid], which IC50 (PC-3 cell line; [2]) is on record?
**A.** > 10 µM

**Q.** What about the IC50 (PC-3 cell line; [3]) of the same compound?
**A.** > 10 µM

**Q.** For `O=C(O)C[Se]C(=O)c1cccnc1` [Compound 20, (3-pyridoylselenyl)acetic acid], which IC50 (PC-3 cell line; [2]) is on record?
**A.** > 10 µM

**Q.** And the IC50 (PC-3 cell line; [3])?
**A.** > 10 µM
